How the values were obtained:
Type in all cases: cell-based
[1] = system: W2 (apoptosis competent) cells; test: Apoptosis induction screen, MTT cell viability, W2 cells
From the text: (§1) Pro-apoptotic Bax and Bak are the essential and redundant regulators of apoptosis required for suppressing tumor growth and chemotherapeutic response. Because D3 cells are genetically deleted for Bax and Bak, there is no means to restore apoptosis in these cells, yet all apoptosis regulatory mechanisms upstream (Bcl-2, Bcl-xL, Bim, Nbk/Bik, Puma, Noxa, caspase-3, caspase-7) remain intact. […] This feature permits the use of W2 and D3 cell lines in biological screening for compounds that promote apoptosis by the criteria of killing W2 and not D3 cells. Compounds that indiscriminately kill both apoptosis-competent W2 and apoptosis-defective D3 cells are eliminated as non-specifically toxic.
(§2) W2 and D3 cells were plated in 96 and 24-well plates and incubated for 24 hours after which they were evenly spread at about 50% confluency. At this time, compounds dissolved in DMSO and diluted in growth medium (DMEM) were added to the cells at various concentrations. […] Cell viability was determined using a modification of the MTT assay, where the reduction of yellow tertazolium salt (MTT-3-(4,5-Dimethylthiazol-2-yl)-2,5) to purple formazan indicates mitochondrial activity, and thus cell viability. […] After 30 minutes incubation at 37° C., with shaking, absorbance was read at 570 nm on a Spectra MAX 250 (Molecular Devices) plate reader. Differential growth from time 0 to 48 hours was calculated. […]

[2] = system: D3 (apoptosis defective) cells; test: Apoptosis induction screen, MTT cell viability, D3 cells; conditions: MTT assay, time 0 to 48 hours, Compound I 12 μM (FIG. 3a)
From the text: as §1, §2

[3] = system: apoptosis competent W2 cells; test: Time-lapse microscopy of cell division and viability, W2 cells; design: sensitivity of W2 cells to apoptosis: dose or concentration left out as unconfirmed
Experimental: (§3) In order to determine the differential impact of apoptosis induction on cell growth and viability of W2 and D3 cells, cell division and viability was monitored via time-lapse microscopy. Cells were cultured in a time-lapse chamber equipped with controlled environmental conditions. The time-lapse microscopy system consisted of an Olympus IX71 inverted microscope fitted with temperature, humidity and CO2 controlled environmental chamber (Solent Scientific, UK) and a Coolsnap ES cooled
(§4) CCD camera. Image capturing and analysis were performed using Image-Pro Plus software (Media Cybernetics, USA). Phase contrast images (100×) at multiple fields were obtained for the indicated time period. Time-lapse images were converted to movies using Image-Pro Plus software with custom modifications and a graphic data processing workstation (Dell Precision 670).
(§5) W2 and D3 cells were incubated for 48 hours in the presence of Compound I […] (FIG. 3b).

[4] = system: apoptosis resistant D3 cells; test: Time-lapse microscopy of cell division and viability, D3 cells; design: dose or concentration left out as unconfirmed
Experimental: as §3, §4, §5

Row | SMILES | death of W2 ([1]; MTT assay, time 0 to 48 hours, Compound I 12 μM (FIG. 3a)) [%] | growth of D3 [2] [%] | sensitivity of W2 cells to apoptosis ([3]; 48 hours) | time to induction of cell death of W2 cells (rounded and detached) ([3]; DMEM with 10% FBS, 5% CO2 at 37° C.) [h] | growth arrest in treated D3 cells [4] | survival of the D3 cells [4] | viability of D3 cells ([4]; at 48 hours, persisted following 72 hours) | apoptosis induction (positive control) ([1]; W2 and D3 cells, 0.1 μM staurosporine)
1 | C=C1CC/C=C(\C)CC[C@@H]2C(C(CC3OC3(C)C)OC(C)=O)=CO[C@H](OC(C)=O)[C@@H]12 (some centres unmarked) [Compound I, 9-deacetoxyxeniculin] | 50 | 61 | highly sensitive to apoptosis | 18 to 24 | clear indication of growth arrest | at least 72 hours | retained their viability | 
2 | CN[C@@H]1C[C@H]2O[C@@](C)([C@@H]1OC)n1c3ccccc3c3c4c(c5c6ccccc6n2c5c31)C(=O)NC4 [staurosporine, reference compound] |  |  |  |  |  |  |  | induced apoptosis at comparable levels to Compound I

From patent publication US8183395B2, “Compositions and methods for treating cancer” (Rutgers, The State University of New Jersey, priority 2007, dated 2012)
